Experimental data: PubChem BioAssay AID2043 (NMMLSC, 2009)
The source made the active and inactive calls. The rule behind the calls is not given here.

Molecular target: GTPase HRas, activated mutant (human)
Experiment: activated mutant Ras nucleotide binding blockade – biochemical, additional analogs, multiplex flow cytometry, Ki, SAR follow-up (AID 2043)
Conditions: bead-based flow cytometry multiplex, fluorescent GTP binding; for Ki: measured here: Ki derived from EC50

| EC50 | Ki [nM] | Structure (SMILES) |
| --- | --- | --- |
| inactive | 1340 | O=C(C#Cc1ccccc1)c1ccc(F)cc1 |
| inactive | 560 | O=C(C#Cc1ccccc1)c1ccccc1[N+](=O)[O-] |
| inactive | 30 | CC(C(=O)O)c1cccc(C(=O)c2ccccc2)c1 (stereo unspecified) |
